Data as given in ChEMBL document CHEMBL4376892, “Identification of Parthenolide Dimers as Activators of Pyruvate Kinase M2 in Xenografts of Glioblastoma Multiforme in Vivo” (J Med Chem, 2020).
Active and inactive are the calls of the source. The rule behind the calls is not given here.

Key:
U-118-MG [1] = experiment: Induction of apoptosis in human U118MG cells assessed as late apoptotic cells after 48 hrs by Annexin-V-FITC/PI-staining based flow cytometric analysis (reference value: 0.616%); format: functional
HeLa = experiment: Antiproliferative activity against human HeLa cells assessed as reduction in cell viability after 72 hrs by MTT assay; format: functional, cell-based
U-87 MG [2] = experiment: Induction of apoptosis in human U87 cells transfected with lentivirus expressing shNC assessed as late apoptotic cells after 48 hrs by Annexin-V-FITC/PI-staining based flow cytometric analysis (reference value: 0.608%); format: functional, U-87MG ATCC
U-118-MG [3] = experiment: Antimigratory activity against human U118MG cells transfected with lentivirus expressing shPKM2 at 2 uM incubated for 48 hrs by crystal violet staining based transwell assay; format: functional, cell-based
U-87 MG [4] = experiment: Induction of apoptosis in human U87 cells assessed as necrotic cells after 48 hrs by Annexin-V-FITC/PI-staining based flow cytometric analysis (reference value: 0.1%); format: functional, U-87MG ATCC
U-87 MG [5] = experiment: Induction of apoptosis in human U87 cells transfected with lentivirus expressing shPKM2 assessed as late apoptotic cells after 48 hrs by Annexin-V-FITC/PI-staining based flow cytometric analysis (reference value: 1.25%); format: functional, U-87MG ATCC
Pyruvate kinase PKM [6] = biological target: T1, Pyruvate kinase PKM (Homo sapiens, UniProt P14618); experiment: Inhibition of PKM2 dimer nuclear translocation in human U118MG cells assessed as reduction in PKM2 accumulation in nucleus at 0.5 to 1 uM after 48 hrs by Western blot analysis; format: cell-based
Target sequence in this assay (P14618 2-531 limits assumed): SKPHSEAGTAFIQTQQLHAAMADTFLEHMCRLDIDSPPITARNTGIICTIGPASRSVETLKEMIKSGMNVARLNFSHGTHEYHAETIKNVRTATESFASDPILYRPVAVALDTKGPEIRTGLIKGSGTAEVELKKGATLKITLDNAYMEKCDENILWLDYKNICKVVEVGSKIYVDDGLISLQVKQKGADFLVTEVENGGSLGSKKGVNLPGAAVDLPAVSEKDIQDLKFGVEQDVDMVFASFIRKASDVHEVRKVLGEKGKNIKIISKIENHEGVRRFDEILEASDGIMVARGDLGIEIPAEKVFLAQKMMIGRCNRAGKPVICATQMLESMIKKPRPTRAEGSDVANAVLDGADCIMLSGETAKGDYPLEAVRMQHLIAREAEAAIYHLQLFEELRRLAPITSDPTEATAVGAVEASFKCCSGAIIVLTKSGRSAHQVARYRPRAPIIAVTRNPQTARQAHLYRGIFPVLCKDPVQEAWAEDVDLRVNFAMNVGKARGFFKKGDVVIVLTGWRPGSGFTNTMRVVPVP

Pyruvate kinase PKM [7] = biological target: T1, Pyruvate kinase PKM; experiment: Activation of recombinant human N-terminal 6His-tagged PKM2 expressed in Escherichia coli BL21 cells after 50 mins by fluorescence based analysis
Target sequence in this assay (P14618 whole entry): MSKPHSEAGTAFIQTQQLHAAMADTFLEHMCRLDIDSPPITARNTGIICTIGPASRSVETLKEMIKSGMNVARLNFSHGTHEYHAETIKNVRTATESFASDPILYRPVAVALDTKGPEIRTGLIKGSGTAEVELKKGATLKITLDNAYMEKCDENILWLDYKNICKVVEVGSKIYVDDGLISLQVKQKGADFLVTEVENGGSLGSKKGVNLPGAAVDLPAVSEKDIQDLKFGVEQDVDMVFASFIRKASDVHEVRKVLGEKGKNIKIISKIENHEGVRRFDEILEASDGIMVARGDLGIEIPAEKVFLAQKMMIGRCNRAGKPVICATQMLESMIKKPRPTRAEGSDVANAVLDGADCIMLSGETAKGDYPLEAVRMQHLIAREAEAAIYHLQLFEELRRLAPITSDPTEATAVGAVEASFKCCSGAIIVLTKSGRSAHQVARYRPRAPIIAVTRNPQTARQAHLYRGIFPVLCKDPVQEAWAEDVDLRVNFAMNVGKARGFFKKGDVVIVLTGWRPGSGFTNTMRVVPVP

U-87 MG [8] = experiment: Antimigratory activity against human U87 cells transfected with lentivirus expressing shNC at 2 uM incubated for 48 hrs by crystal violet staining based transwell assay; format: functional, cell-based; conditions: U-87MG ATCC
U-118-MG [9] = experiment: Induction of apoptosis in human U118MG cells transfected with lentivirus expressing shPKM2 assessed as viable cells after 48 hrs by Annexin-V-FITC/PI-staining based flow cytometric analysis (reference value: 97.7%); format: functional
[10] = biological target: T2, Inhibitor of nuclear factor kappa-B kinase subunit beta (Homo sapiens) (UniProt O14920); experiment: Effect on IKKbeta phosphorylation in human U118MG cells at 0.2 to 0.5 uM after 48 hrs by Western blot analysis; format: cell-based
T2 sequence (whole entry): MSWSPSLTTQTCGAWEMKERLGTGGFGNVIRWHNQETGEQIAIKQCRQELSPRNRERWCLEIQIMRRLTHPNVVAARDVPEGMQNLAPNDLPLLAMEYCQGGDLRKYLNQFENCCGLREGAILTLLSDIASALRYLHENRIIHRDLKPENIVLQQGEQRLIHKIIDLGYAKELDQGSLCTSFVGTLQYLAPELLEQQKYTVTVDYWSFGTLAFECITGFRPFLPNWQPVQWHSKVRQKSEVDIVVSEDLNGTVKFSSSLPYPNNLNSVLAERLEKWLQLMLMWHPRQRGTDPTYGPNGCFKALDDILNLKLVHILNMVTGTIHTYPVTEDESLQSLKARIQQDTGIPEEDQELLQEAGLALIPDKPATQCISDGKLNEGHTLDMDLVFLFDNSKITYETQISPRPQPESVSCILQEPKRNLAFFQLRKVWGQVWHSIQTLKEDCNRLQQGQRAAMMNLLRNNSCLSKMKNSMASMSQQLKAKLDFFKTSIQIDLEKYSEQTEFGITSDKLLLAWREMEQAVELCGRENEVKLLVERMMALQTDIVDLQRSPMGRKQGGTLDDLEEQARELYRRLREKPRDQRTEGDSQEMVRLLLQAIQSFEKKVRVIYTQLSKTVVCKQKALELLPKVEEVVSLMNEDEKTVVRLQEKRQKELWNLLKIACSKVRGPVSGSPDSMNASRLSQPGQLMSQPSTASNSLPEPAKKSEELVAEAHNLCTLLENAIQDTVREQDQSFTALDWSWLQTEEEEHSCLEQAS

Pyruvate kinase PKM [11] = biological target: T1, Pyruvate kinase PKM; experiment: Activation of recombinant human N-terminal 6His-tagged PKM2 expressed in Escherichia coli BL21 cells at 10 uM after 30 mins by fluorescence based analysis relative to control
Target sequence in this assay (P14618 2-531 limits assumed): as the sequence (P14618 2-531 limits assumed) above

U-87 MG [12] = experiment: Induction of apoptosis in human U87 cells assessed as late apoptotic cells after 48 hrs by Annexin-V-FITC/PI-staining based flow cytometric analysis (reference value: 1.22%); format: functional, U-87MG ATCC
U-118-MG [13] = experiment: Induction of apoptosis in human U118MG cells transfected with lentivirus expressing shNC assessed as necrotic cells after 48 hrs by Annexin-V-FITC/PI-staining based flow cytometric analysis (reference value: 0.418%); format: functional
U-118-MG [14] = experiment: Antimigratory activity against human U118MG cells transfected with lentivirus expressing shNC at 2 uM incubated for 48 hrs by crystal violet staining based transwell assay; format: functional, cell-based
Pyruvate kinase PKM [15] = biological target: T1, Pyruvate kinase PKM; experiment: Inhibition of PKM2 dimer nuclear translocation in human U87 cells assessed as reduction in PKM2 accumulation in nucleus at 0.5 to 1 uM after 48 hrs by Western blot analysis; format: cell-based; conditions: U-87MG ATCC
Target sequence in this assay (P14618 2-531 limits assumed): as above

U-87 MG [16] = experiment: Induction of apoptosis in human U87 cells transfected with lentivirus expressing shNC assessed as early apoptotic cells after 48 hrs by Annexin-V-FITC/PI-staining based flow cytometric analysis (reference value: 0.588%); format: functional, U-87MG ATCC
U-118-MG [17] = experiment: Induction of apoptosis in human U118MG cells transfected with lentivirus expressing shPKM2 assessed as late apoptotic cells after 48 hrs by Annexin-V-FITC/PI-staining based flow cytometric analysis (reference value: 0.221%); format: functional
U-87 MG [18] = experiment: Antiinvasive activity against human U87 cells transfected with lentivirus expressing shPKM2 at 2 uM incubated for 48 hrs by crystal violet staining based transwell assay; format: functional, cell-based; conditions: U-87MG ATCC
Pyruvate kinase PKM [19] = biological target: T1, Pyruvate kinase PKM; experiment: Activation of PKM2 in human U87 cells assessed as increase in PKM2 tetramer formation at 0.5 to 1 uM after 48 hrs by chemical cross-linking based Western blot analysis; format: cell-based; conditions: U-87MG ATCC
Target sequence in this assay (P14618 2-531 limits assumed): as above

U-118-MG [20] = experiment: Effect on P65 protein expression in human U118MG cells at 0.2 to 0.5 uM after 48 hrs by Western blot analysis; format: functional, cell-based
U-118-MG [21] = experiment: Induction of apoptosis in human U118MG cells assessed as viable cells after 48 hrs by Annexin-V-FITC/PI-staining based flow cytometric analysis (reference value: 96.7%); format: functional
U-118-MG [22] = experiment: Antiproliferative activity against human U118MG cells assessed as reduction in cell viability after 72 hrs by MTT assay; format: functional, cell-based
U-87 MG [23] = experiment: Induction of apoptosis in human U87 cells transfected with lentivirus expressing shPKM2 assessed as viable cells after 48 hrs by Annexin-V-FITC/PI-staining based flow cytometric analysis (reference value: 97.3%); format: functional, U-87MG ATCC
U-87 MG [24] = experiment: Antiproliferative activity against human U87 cells transfected with lentivirus expressing shPKM2 assessed as reduction in cell viability after 24 hrs by MTT assay; format: functional, cell-based, U-87MG ATCC
U-87 MG [25] = experiment: Antimigratory activity against human U87 cells transfected with lentivirus expressing shPKM2 at 2 uM incubated for 48 hrs by crystal violet staining based transwell assay; format: functional, cell-based; conditions: U-87MG ATCC
U-118-MG [26] = experiment: Antiinvasive activity against human U118MG cells transfected with lentivirus expressing shPKM2 at 2 uM incubated for 48 hrs by crystal violet staining based transwell assay; format: functional, cell-based
U-118-MG [27] = experiment: Induction of PDK4 protein expression in human U118MG cells at 2 uM after 48 hrs by Western blot analysis; format: functional, cell-based

IC50 (HeLa): 5.05 µM | inhibition (Pyruvate kinase PKM [6]): Active | AC50 (Pyruvate kinase PKM [7]): 0.015 µM | Activity [10]: inactive | fold change (FC) (Pyruvate kinase PKM [11]): > 2 | inhibition (Pyruvate kinase PKM [15]): Active | Activity (Pyruvate kinase PKM [19]): Active | IC50 (U-87 MG [24]): 1.76 µM
Compound: C=C1C(=O)O[C@H]2[C@H]1CC/C(C(=O)OCCOCCOC(=O)/C1=C/CC[C@@]3(C)O[C@H]3[C@H]3OC(=O)C(=C)[C@@H]3CC1)=C\CC[C@@]1(C)O[C@@H]21
Activity (U-118-MG [1]): 42.1% | Activity (U-87 MG [2]): 3.62% | Activity (U-118-MG [3]): inactive | Activity (U-87 MG [4]): 0.256% | Activity (U-87 MG [5]): 2.76% | Activity (U-87 MG [8]): Active | Activity (U-118-MG [9]): 92.8% | Activity (U-87 MG [12]): 2.82% | Activity (U-118-MG [13]): 1.85% | Activity (U-118-MG [14]): Active | Activity (U-87 MG [16]): 9.99% | Activity (U-118-MG [17]): 1.32% | Activity (U-87 MG [18]): inactive | Activity (U-118-MG [20]): inactive | Activity (U-118-MG [21]): 12.5% | IC50 (U-118-MG [22]): 1.8 µM | Activity (U-87 MG [23]): 93% | Activity (U-87 MG [25]): inactive | Activity (U-118-MG [26]): inactive | Activity (U-118-MG [27]): Active
